Where two headings read alike, the source gives them in different places.
Legend:
SARS-Cov-2 virus = test: Pharmacodynamic evaluation for Covid 19 in hamsters; assay type: in vivo, Syrian golden hamsters
Description: A total of 20 wild-type Syrian golden hamsters, aged 6-8 weeks, with half male and half female, were randomly divided into two groups: control group (n=4), and therapy group consisting of 5 mg/kg and 20 mg/kg groups, with 8 mice per group. Starting from day 0 (DO), the hamsters in the therapy group were given A2 orally at a total daily dose of 5 mg/kg or 20 mg/kg, and the control group was given an equal amount of blank drug orally daily. Meanwhile, on day 0, all hamsters were anesthetized and then inoculated intranasally with 100 uL of 1.375×10^6 PFU/mL SARS-Cov-2 virus. Clinical manifestations and body weight were monitored daily. At the end of the study, tissues (e.g., lungs) were collected and weighed, and virus RNA and infectious virus were then quantified.

[1] = beagle, dog, microsomes, 1 h, 10 µM
Description: (§1) The procedure for identifying microsomal metabolites is as follows:
(§2) The compounds (test compounds and their numbers are shown below, among which compounds A1 and B1 are prepared by referring to the relevant method disclosed in CN110396087A) were weighed and dissolved into dimethyl sulfoxide to prepare a 20 mM solution. The compound stock solution was diluted with 50% acetonitrile in water (v/v) to a concentration of 1.0 mM as a working solution. Liver microsomes (20 mg/mL) were diluted to 1.27 mg/mL with 50 mM dipotassium hydrogen phosphate buffer as a liver microsome working solution. Reduced coenzyme was weighed and dissolved in 3307 μL of phosphate buffer (50 mM) to 5.0 mM as a reduced coenzyme working solution. For T=60 minutes samples, 4 μL of test working solution (1.0 mM) was added, followed by 316 μL of liver microsome working solution (1.27 mg/mL), and finally, 80 μL of reduced coenzyme working solution was added to start the reaction. For T=0 minutes samples, 316 μL of liver microsome working solution (1.27 mg/mL) was added and then 80 μL of reduced coenzyme working solution was added to start the reaction, without test solution incubation. After incubation at 37° C. for 60 minutes, 1200 μL of stop solution was added to stop the enzyme reaction. For T=0 minute samples, 4 μL of test working solution (1.0 mM) was added. The sample plate was placed on a vortexer and vortexed at 600 rpm for 5 minutes. Then, the sample plate was centrifuged at 4000 rpm for 10 minutes. The supernatant was removed, mixed, and dried at room temperature with nitrogen. The residue dried with nitrogen was redissolved in 300 μL of 10% acetonitrile (0.1% FA) solvent and then centrifuged at 4000 rpm for 15 minutes. The supernatant was transferred to a detection plate for mass spectrometry. Mass spectrometry was performed using LC/Q-Exactive plus.
(§3) 7-Ethoxycoumarin (10 μM) was selected as a positive control compound and operated in parallel with the compounds.

MHV-A59 virus = test: Pharmacodynamic evaluation for MHV, low-dose virus group; assay type: in vivo, C57BL/6 mice; details: 4×10^5 PFU, day 8, control 19.19%
Description: The effect of A2 on the prevention and treatment of MHV was investigated.
Low-dose virus group: 21 male SPF grade C57BL/6 mice, aged 4 weeks, were divided into three groups: control group, precaution group and therapy group. These mice were anesthetized and then injected intrahepatically (i.h.) with 100 μL of DMEM containing 4×10^5 PFU MHV-A59 virus. The precaution group was given the first dose of A2 at 10 mg/kg 24 hours before the challenge, and the therapy group was given the first dose of A2 at 10 mg/kg 24 hours after the challenge, followed by daily continuous administration (both the precaution group and the therapy group were given a daily dose of 10 mg/kg). The infected mice were monitored daily. Blood samples were collected from the retro-orbital venous plexus on day 0 and day 4 after infection, and serum was extracted to detect alanine aminotransferase (ALT)/alanine aminotransferase (GPT) levels. On day 8 after infection, all groups of mice were sacrificed. Liver tissues were taken for virus titer determination and histological analysis, and spleen tissues were taken for virus specific T proliferation assay.

[2] = mouse, microsomes, 1 h, 10 µM
Description: as §1, §2, §3

HSV virus = test: Pharmacodynamic evaluation for viral keratitis (HSV) in mice; assay type: in vivo, C57 mice; details: for corneal perforation: right eye, 2 weeks, control: 2 eyes perforated from day 5; for clinical score at the highest peak of the disease (day 5): control group above 6
Description: Fifteen C57 mice (body weight: 22 g to 25 g), aged 8 weeks, were subjected to viral keratitis modeling in their right eyes. During the modeling process, a sterile 25G needle was used to make […]parallel scratches on the cornea of the right eye of all the animals. The scratch depth should be in the superficial zone and cannot penetrate the stroma layer. The scratches between each eyeball should be moderately uniform in depth and evenly distributed in density. Then, 4 μl of well-mixed HSV virus solution was dripped using a fiber syringe (titer: 2.0*10^6 PFU/ml) to complete the modeling. The day of modeling was set as DO. One day after modeling, the animals' right eyes were scored for viral keratitis, and 9 mice with uniform modeling were selected for the experiment. These 9 mice were randomly divided into 3 groups: control group, 1% A2 group and 0.2% A2 group, with 3 mice per group. According to the grouping, each animal's right eye surface was treated with the corresponding drugs, vehicle or 3024 eye drops with different concentrations, once every other day. On the day of administration, each eye was given 3 drops of 10 μl each time for 2 consecutive weeks. The degree of keratitis lesions was scored and analyzed on days 1, 3, 5, 7, 9, 11 and 14 after modeling.
Grading (i.e., scoring) was performed based on the three criteria of corneal ulcer area, depth and shape, and the total score was recorded by adding.
(1) Corneal ulcer area: Score 1=1% to 25%; Score 2=26% to 50%; Score 3=51% to 75%; and Score 4=76% to 100%.
(2) Lesion depth: Score 1=mild corneal opacity with clear iris texture; Score 2=off-white superficial corneal opacity with visible iris texture; Score 3=off-white deep corneal opacity with unclear iris texture; and Score 4=off-white full-layer dense corneal opacity with unclear anterior chamber.
(3) Corneal ulcer shape: Score 1=mild surface irregularity; Score 2=rough corneal surface with mild swelling; Score 3=severe edema with swelling descemet's membrane; and Score 4=corneal perforation or severe swelling descemet's membrane.
(4) If there is hypopyon and/or hyphema, the score is increased by 1.

## [2H]C([2H])([2H])N1CCC(n2cc(-c3cnc(N)c(OCc4cccc(C#CC(C)(C)O)c4)c3)cn2)CC1 [Compound A2, 4-(3-(((2-amino-5-(1-(1-trideuteriomethylpiperidin-4-yl)-1H-pyrazol-4-yl)pyridin-3-yl)oxy)methyl)phenyl)-2-methylbut-3-yn-2-ol]
SARS-Cov-2 virus; 20 mg/kg daily, oral
  body weight of SARS-Cov-2 infected hamsters: gained weight at a much faster rate
SARS-Cov-2 virus; all A2 dose groups (5 mg/kg and 20 mg/kg daily, oral)
  lung weight normalized to total body weight: decreased
[1]
  remaining percentage of the parent cores after 60 min: 7.0%
MHV-A59 virus; precaution group, 10 mg/kg daily from 24 hours before challenge
  average proliferation rate of spleen cells (virus specific T cell proliferation): 28.18%
MHV-A59 virus; therapy group, 10 mg/kg daily from 24 hours after challenge
  average proliferation rate of spleen cells (virus specific T cell proliferation): 52.95%
[2]
  remaining percentage of the parent cores after 60 min: 55.0%
HSV virus; 0.2% eye drops for 2 weeks, P<0.01
  keratitis lesion scores vs model control group: statistically different
HSV virus; 0.2% eye drops
  corneal perforation: no corneal perforation
  clinical score at the highest peak of the disease (day 5): less than 6
HSV virus; 1% eye drops (suspension), control group above 1
  corneal neovascularization scoring: below 0.5
HSV virus; 1.0% eye drops for 2 weeks, P<0.05
  keratitis lesion scores vs model control group: statistically different
HSV virus; 1% eye drops
  corneal perforation: no corneal perforation
  clinical score at the highest peak of the disease (day 5): less than 6
